Values quoted from earlier work as cited in patent US10196371B2, “Compounds for the treatment of HPV-induced carcinoma” (Åbo Akademi, priority 2014, dated 2019).

Columns and labels:
[1] = system: E6 and E7
[2] = system: HPV16 positive cervical cancer cells

In the case of C=C1C(=O)OC2/C=C(/C)CC/C=C(\C(=O)O)CC/C=C(\C)CCC12 (centres unmarked) [anisomelic acid], the “protein level expression of E6 and E7” value [1] is given as “inhibits” and the “efficiency in inducing apoptosis” value [2] is given as “good efficiency”.
